Test results: article PMC10870114 (Clinical Cancer Research, 2023)

Test system: patients with locally advanced rectal cancer
Experiment: Treatment-emergent adverse events
Assay type: in vivo, human
[1] = Overall, peposertib 50-250 mg + RT + capecitabine, n = 19
[2] = peposertib 50 mg + RT + capecitabine, n = 1
[3] = peposertib 100 mg + RT + capecitabine, n = 6
[4] = peposertib 150 mg + RT + capecitabine, n = 6
[5] = peposertib 250 mg + RT + capecitabine, n = 6

For COc1ccc([C@@H](O)c2cc(-c3ncnc4cc(N5CCOCC5)ccc34)c(F)cc2Cl)nn1 [Peposertib], the “Grade 4 TEAE: lymphocyte count decrease” value (100-mg cohort) was 1 n, the “Grade 4 TEAE: lymphopenia” value (100-mg cohort) was 1 n and the “Grade 4 TEAE: lymphopenia” value (150-mg cohort) was 1 n. For the same molecule, the “Grade 4 TEAE: enterocolitis” value (250-mg cohort) was 1 n, the “Grade 4 TEAE: leukopenia and lymphocyte count decrease” value (250-mg cohort) was 1 n and the “Patients with any Capecitabine-related TEAE” value [1] was 19 (100) n (%). For the same molecule, the “Patients with any Capecitabine-related grade ≥3 TEAE” value [1] was 10 (53) n (%), the “Patients with any Capecitabine-related grade ≥4 TEAE” value [1] was 5 (26) n (%) and the “Patients with any Capecitabine-related serious TEAE” value [1] was 5 (26) n (%). For the same molecule, the “Patients with any Grade ≥3 TEAE” value [1] was 14 (74) n (%), the “Patients with any Grade ≥4 TEAE” value [1] was 5 (26) n (%) and the “Patients with any Peposertib-related TEAE” value [1] was 17 (90) n (%). For the same molecule, the “Patients with any Peposertib-related grade ≥ 3TEAE” value [1] was 13 (68) n (%), the “Patients with any Peposertib-related grade ≥4 TEAE” value [1] was 5 (26) n (%) and the “Patients with any Peposertib-related serious TEAE” value [1] was 6 (32) n (%). The “Patients with any RT-related TEAE” value [1] was 19 (100) n (%), the “Patients with any RT-related grade ≥3 TEAE” value [1] was 9 (47) n (%) and the “Patients with any RT-related grade ≥4 TEAE” value [1] was 4 (21) n (%). The “Patients with any RT-related serious TEAE” value [1] was 5 (26) n (%), the “Patients with any Serious TEAE” value [1] was 7 (37) n (%) and the “Patients with any TEAE” value [1] was 19 (100) n (%). For the same molecule, the “Patients with any TEAE leading to death” value [1] was 0 n (%), the “Patients with any TEAE leading to permanent discontinuation of RT” value (from here on “Patients with any TEAE leading … of RT”) [1] was 2 (11) n (%) and the “Patients with any TEAE leading to permanent discontinuation of capecitabine” value (“Patients with any TEAE leading … of capecitabine” for short) [1] was 3 (15.8) n (%). The “Patients with any TEAE leading to permanent discontinuation of peposertib” value (shortened to “Patients with any TEAE leading … of peposertib”) [1] was 4 (21) n (%), the “Patients with any TEAE leading to study discontinuation” value (from here on “Patients … to study discontinuation”) [1] was 0 n (%) and the “Most frequently reported TEAE: fatigue” value (across all cohorts, n = 9) was 47.4%. The “Most frequently reported TEAE: nausea” value (across all cohorts, n = 9) was 47.4%, the “Most frequently reported TEAE: proctitis” value (across all cohorts, n = 9) was 47.4% and the “Most frequently reported TEAE: diarrhea” value (across all cohorts, n = 15) was 78.9%. For the same molecule, the “Patients with grade ≥3 TEAE” value (all cohorts, 14 of 19 patients) was 73.7%, the “Grade ≥3 TEAE: diarrhea” value (all cohorts, n = 19) was 15.8% and the “Grade ≥3 TEAE: enterocolitis” value (all cohorts, n = 19) was 15.8%. The “Grade ≥3 TEAE: lymphocyte count decreased” value (all cohorts, n = 19) was 36.8%, the “Grade ≥3 TEAE: lymphopenia” value (all cohorts, n = 19) was 21.1% and the “Patients with any Capecitabine-related TEAE” value [2] was 1 (100) n (%). For the same molecule, the “Patients with any Capecitabine-related grade ≥3 TEAE” value [2] was 0 (0) n (%), the “Patients with any Capecitabine-related grade ≥4 TEAE” value [2] was 0 (0) n (%) and the “Patients with any Capecitabine-related serious TEAE” value [2] was 0 n (%). For the same molecule, the “Patients with any Grade ≥3 TEAE” value [2] was 0 (0) n (%), the “Patients with any Grade ≥4 TEAE” value [2] was 0 (0) n (%) and the “Patients with any Peposertib-related TEAE” value [2] was 1 (100) n (%). For the same molecule, the “Patients with any Peposertib-related grade ≥ 3TEAE” value [2] was 0 (0) n (%), the “Patients with any Peposertib-related grade ≥4 TEAE” value [2] was 0 (0) n (%) and the “Patients with any Peposertib-related serious TEAE” value [2] was 0 n (%). The “Patients with any RT-related TEAE” value [2] was 1 (100) n (%), the “Patients with any RT-related grade ≥3 TEAE” value [2] was 0 (0) n (%) and the “Patients with any RT-related grade ≥4 TEAE” value [2] was 0 (0) n (%). For the same molecule, the “Patients with any RT-related serious TEAE” value [2] was 0 n (%), the “Patients with any Serious TEAE” value [2] was 0 n (%) and the “Patients with any TEAE” value [2] was 1 (100) n (%). For the same molecule, the “Patients with any TEAE leading to death” value [2] was 0 n (%), the “Patients with any TEAE leading … of RT” value [2] was 0 (0) n (%) and the “Patients with any TEAE leading … of capecitabine” value [2] was 0 (0) n (%). For the same molecule, the “Patients with any TEAE leading … of peposertib” value [2] was 0 (0) n (%), the “Patients … to study discontinuation” value [2] was 0 n (%) and the “Patients with any Capecitabine-related TEAE” value [3] was 6 (100) n (%). For the same molecule, the “Patients with any Capecitabine-related grade ≥3 TEAE” value [3] was 2 (33) n (%), the “Patients with any Capecitabine-related grade ≥4 TEAE” value [3] was 2 (33) n (%) and the “Patients with any Capecitabine-related serious TEAE” value [3] was 2 (33) n (%). The “Patients with any Grade ≥3 TEAE” value [3] was 4 (67) n (%), the “Patients with any Grade ≥4 TEAE” value [3] was 2 (33) n (%) and the “Patients with any Peposertib-related TEAE” value [3] was 5 (83) n (%). The “Patients with any Peposertib-related grade ≥ 3TEAE” value [3] was 3 (50) n (%), the “Patients with any Peposertib-related grade ≥4 TEAE” value [3] was 2 (33) n (%) and the “Patients with any Peposertib-related serious TEAE” value [3] was 2 (33) n (%). For the same molecule, the “Patients with any RT-related TEAE” value [3] was 6 (100) n (%), the “Patients with any RT-related grade ≥3 TEAE” value [3] was 2 (33) n (%) and the “Patients with any RT-related grade ≥4 TEAE” value [3] was 1 (17) n (%). For the same molecule, the “Patients with any RT-related serious TEAE” value [3] was 2 (33) n (%), the “Patients with any Serious TEAE” value [3] was 3 (50) n (%) and the “Patients with any TEAE” value [3] was 6 (100) n (%). The “Patients with any TEAE leading to death” value [3] was 0 n (%), the “Patients with any TEAE leading … of RT” value [3] was 0 (0) n (%) and the “Patients with any TEAE leading … of capecitabine” value [3] was 0 (0) n (%). For the same molecule, the “Patients with any TEAE leading … of peposertib” value [3] was 0 (0) n (%), the “Patients … to study discontinuation” value [3] was 0 n (%) and the “Patients with any Capecitabine-related TEAE” value [4] was 6 (100) n (%). For the same molecule, the “Patients with any Capecitabine-related grade ≥3 TEAE” value [4] was 2 (33) n (%), the “Patients with any Capecitabine-related grade ≥4 TEAE” value [4] was 1 (17) n (%) and the “Patients with any Capecitabine-related serious TEAE” value [4] was 0 n (%). The “Patients with any Grade ≥3 TEAE” value [4] was 4 (67) n (%), the “Patients with any Grade ≥4 TEAE” value [4] was 1 (17) n (%) and the “Patients with any Peposertib-related TEAE” value [4] was 5 (83.3) n (%). For the same molecule, the “Patients with any Peposertib-related grade ≥ 3TEAE” value [4] was 4 (67) n (%), the “Patients with any Peposertib-related grade ≥4 TEAE” value [4] was 1 (17) n (%) and the “Patients with any Peposertib-related serious TEAE” value [4] was 0 n (%). For the same molecule, the “Patients with any RT-related TEAE” value [4] was 6 (100) n (%), the “Patients with any RT-related grade ≥3 TEAE” value [4] was 2 (33) n (%) and the “Patients with any RT-related grade ≥4 TEAE” value [4] was 1 (17) n (%). The “Patients with any RT-related serious TEAE” value [4] was 0 n (%), the “Patients with any Serious TEAE” value [4] was 0 n (%) and the “Patients with any TEAE” value [4] was 6 (100) n (%). For the same molecule, the “Patients with any TEAE leading to death” value [4] was 0 n (%), the “Patients with any TEAE leading … of RT” value [4] was 1 (17) n (%) and the “Patients with any TEAE leading … of capecitabine” value [4] was 1 (17) n (%). For the same molecule, the “Patients with any TEAE leading … of peposertib” value [4] was 1 (17) n (%), the “Patients … to study discontinuation” value [4] was 0 n (%) and the “Patients with any Capecitabine-related TEAE” value [5] was 6 (100) n (%). For the same molecule, the “Patients with any Capecitabine-related grade ≥3 TEAE” value [5] was 6 (100) n (%), the “Patients with any Capecitabine-related grade ≥4 TEAE” value [5] was 2 (33) n (%) and the “Patients with any Capecitabine-related serious TEAE” value [5] was 3 (50) n (%). The “Patients with any Grade ≥3 TEAE” value [5] was 6 (100) n (%), the “Patients with any Grade ≥4 TEAE” value [5] was 2 (33) n (%) and the “Patients with any Peposertib-related TEAE” value [5] was 6 (100) n (%). The “Patients with any Peposertib-related grade ≥ 3TEAE” value [5] was 6 (100) n (%), the “Patients with any Peposertib-related grade ≥4 TEAE” value [5] was 2 (33) n (%) and the “Patients with any Peposertib-related serious TEAE” value [5] was 4 (67) n (%). For the same molecule, the “Patients with any RT-related TEAE” value [5] was 6 (100) n (%), the “Patients with any RT-related grade ≥3 TEAE” value [5] was 5 (83.3) n (%) and the “Patients with any RT-related grade ≥4 TEAE” value [5] was 2 (33) n (%). The “Patients with any RT-related serious TEAE” value [5] was 3 (50) n (%), the “Patients with any Serious TEAE” value [5] was 4 (67) n (%) and the “Patients with any TEAE” value [5] was 6 (100) n (%). For the same molecule, the “Patients with any TEAE leading to death” value [5] was 0 n (%), the “Patients with any TEAE leading … of RT” value [5] was 1 (17) n (%) and the “Patients with any TEAE leading … of capecitabine” value [5] was 2 (33) n (%). The “Patients with any TEAE leading … of peposertib” value [5] was 3 (50) n (%) and the “Patients … to study discontinuation” value [5] was 0 n (%).
